Experimental data taken from patent US20040223963A1, “Method for treating ischemic stroke with melatonin” (priority 2003, published 2004).
“Also recorded” adds a separate entry of the source. Like-named read-outs stand apart in the source and are kept apart here.

What was measured:
ischemic stroke = conditions: cited from earlier work
[1] = tested on: adult Sprague-Dawley rats; assay: endovascular middle cerebral artery occlusion (MCAO) stroke models, permanent and 3-hour; format: in vivo, rat
From the text: The laboratory observations in support of the disclosed invention include experiments with rats. In experimental studies, the control groups of animal received identical handling plus an intraperitoneal injection of the vehicle alone (i.e. without melatonin).

women = conditions: oral, about 300 mg daily for about 4 months; cited from earlier work
[2] = clinical trials on neuroprotection against ischemic stroke
[3] = second and third doses added at 24 and 48 hours of ischemia

NC(=O)CN1CCCC1=O [Piracetam]
Results (efficacy) (ischemic stroke; [2]): No overall efficacy,

O=C1NC(c2ccccc2)(c2ccccc2)C(=O)N1COP(=O)(O)O [Fosphenytoin]
Results (efficacy) (ischemic stroke; [2]): No efficacy

COc1ccc(Cl)cc1[C@]1(F)C(=O)Nc2cc(C(F)(F)F)ccc21 [BMS-204352]
Results (efficacy) (ischemic stroke; [2]): No efficacy

O=C(O)[C@@H]1C[C@H](CP(=O)(O)O)CCN1 (racemic) [Selfotel]
Results (adverse effects) (ischemic stroke; [2]): Trial stopped, adverse effects

bFGF: Neurotrophic factor
Results (adverse effects) (ischemic stroke; in vivo): Trial stopped, adverse effects

Fc1ccc(C(c2ccc(F)cc2)N2CCN(C/C=C/c3ccccc3)CC2)cc1 [Flunarizine]
Results (efficacy) (ischemic stroke; [2]): No efficacy

COc1ccc2[nH]cc(CCNC(C)=O)c2c1 [melatonin]
efficacy at high dose ([1]; 50 mg/kg): effective
harmful effects ([1]; doses up to about 50 mg/kg): can be administered safely; also recorded: no evidence of producing any harmful effects
reduction of infarct volume ([1]; pre-treatment, single i.p. injection, about 5 to about 15 mg/kg, at about 72 hours, permanent and 3-hour MCAO): about 40%
effect on systemic hemodynamic parameters and regional cerebral blood flow ([1]; pre-treatment, single i.p. injection, about 5 to about 15 mg/kg, permanent and 3-hour MCAO): without affecting
infarct volume with additional doses [1, 3]: tended to achieve increased reduction in infarct volume
treatment time window [1, 3]: failed to extend the treatment time window beyond about 3 hours
efficacy of treatment after onset of ischemia ([1]; single injection about 5 mg/kg commenced at 1 hour or less after onset of ischemia, 3-hour MCAO): effective
effect on ovulation (women): inhibit ovulation
side effects (women): without significant side effects

C=C1CC[C@@]2(O)[C@H]3Cc4ccc(O)c5c4[C@@]2(CCN3CC2CC2)[C@H]1O5 [Nalmefene]
Results (efficacy) (ischemic stroke; [2]): No efficacy

NS(=O)(=O)c1cccc2c1c([N+](=O)[O-])cc1nc(O)c(O)nc12 [NBQX]
Results (adverse effects) (ischemic stroke; in vivo): Trial stopped, adverse effects

COC(=O)C1=C(C)NC(C)=C(C(=O)OC(C)C)C1c1cccc2nonc12 (centres unmarked) [Isradipine]
Results (efficacy) (ischemic stroke; [2]): No efficacy

CN1CC[C@@]23CCCC[C@@H]2[C@@H]1Cc1ccc(O)cc13 [Dextrorfan]
Results (adverse effects) (ischemic stroke; [2]): Trial stopped, adverse effects

O=C(/C=C/c1c(C(=O)O)[nH]c2cc(Cl)cc(Cl)c12)Nc1ccccc1 [GV150526]
Results (efficacy) (ischemic stroke; [2]): No efficacy

CCCn1cnc2c1c(=O)n(CCCCC(C)=O)c(=O)n2C [Propentophylline]
Results (adverse effects) (ischemic stroke; [2]): Trial stopped, adverse effects

CCc1cccc(N(C)C(N)=Nc2cccc3ccccc23)c1 [Aptiganel]
Results (adverse effects) (ischemic stroke; [2]): Trial stopped, adverse effects

C[C@@H]1C[C@H]2[C@@H]3CCC4=CC(=O)C=C[C@]4(C)C3=CC[C@]2(C)[C@H]1C(=O)CN1CCN(c2cc(N3CCCC3)nc(N3CCCC3)n2)CC1 [Tirilazad]
Results (efficacy) (ischemic stroke; [2]): No efficacy

C[C@]12N[C@H](Cc3ccccc31)c1ccccc12 [Dizolcipine]
Results (adverse effects) (ischemic stroke; [2]): Trial stopped, adverse effects

OC(CN1CCC(Cc2ccc(F)cc2)CC1)c1ccc(Cl)cc1 (centres unmarked) [Eliprodil]
Results (efficacy) (ischemic stroke; [2]): No efficacy

CN(c1nc2ccccc2s1)C1CCN(C[C@H](O)COc2ccc(F)c(F)c2)CC1 [Lubeluzole]
Results (efficacy) (ischemic stroke; [2]): No efficacy
